Test results from article PMC7874386, “Protein-observed 19F NMR of LecA from Pseudomonas aeruginosa” (Glycobiology, 2020).
Read-outs that look alike come from different tables or passages of the source.

Experiments:
LecA [1] = target: T1, LecA (Pseudomonas aeruginosa, UniProt Q05097); assay: Isothermal titration calorimetry of Ca2+ to apo LecA; format: binding; settings: unlabeled apo LecA, TBS pH 7.4, 25°C; read-out: Kd (ITC)
T1 construct: made in house; host or cells: Escherichia coli BL21 (DE3) (inferred from the yield comparison; no protocol of its own is printed for the unlabelled protein)
Procedure: ITC was performed on a Microcal ITC200 (General Electric) at 25°C. Calcium ions were removed by extensive dialysis against 1 mM EDTA pH 7.4 (×4) followed by 150 mM NaCl (×4) and distilled water. The protein solution was lyophilized and the solid protein stored at −20°C. A solution of calcium chloride in TBS (20 mM Tris, 137 mM NaCl, 2.6 mM KCl at pH 7.4) was titrated into a calcium-free LecA solution in the same buffer. The data were analyzed according to the one-site-binding model using Microcal Origin software. Four independent titrations were performed using CaCl2 and LecA between 2 and 3 mM and 170 and 200 μM, respectively.

5FW LecA [2] = target: T2, 5FW LecA (Pseudomonas aeruginosa, UniProt Q05097); assay: PrOF NMR titration of ligands to 5FW LecA (W42 peak intensity); format: binding
T2 construct: made in house; host or cells: Escherichia coli BL21 (DE3), plasmid pET25pa1l, grown with 5-fluoroindole
Procedure: All experiments were conducted on Bruker Ascend™700 (AvanceIII HD) spectrometer equipped with a 5 mm TCI700 CryoProbe™ in 3 mm tubes (Norell S-3-800-7) with following parameters: time domain of 1972, relaxation delay 1 s, acquisition time of 0.15 s, spectral width of 10 p.p.m. and 1024 scans resulting in measurement time of 20 minutes.
The decreasing intensity of the unbound W42 in 5FW LecA was followed to determine Kd values of ligands. Here, we used these values to normalize the changes in W42 peak intensities (Inormalized) following the equation (1) resulting in values plotted on Y-axis.(1) where I0 was unbound W42 in the reference spectrum of protein only, Imeasured was unbound W42 peak of protein with a ligand. The Kd values were calculated according to the one-site-binding model in GraphPad Prism 8 (GraphPad Software Inc., San Diego, CA) from three independent titrations.

LecA [3] = target: T1, LecA; assay: Competitive binding fluorescence polarization assay with LecA
Procedure: (§1) The competitive binding assay was performed as reported previously ([Joachim et al. 2016]). In total, 10 μL of LecA (40 μM) and meta-linked fluorescein-conjugate of phenyl-galactopyranoside (20 nM) in TBS pH 7.4 supplemented with 1 mM CaCl2 (TBS/Ca^2+) and 10 μL of compound-dilution series (8 mM to 62 μM, 8% DMSO) in TBS/Ca^2+ buffer were mixed in a 384-well plate (Greiner Bio-One, Germany) in three technical replicates. The sealed plate was centrifuged at 300 g for 1 min and incubated at room temperature with shaking. […] Polarization was calculated and the data were analyzed according to the four-parameter variable slope model (MARS Data Analysis Software, BMG Labtech GmbH, Germany), the top and bottom plateaus were determined from the control Me-α-D-Gal and data were reanalyzed with these values fixed.

LecA [4] = target: T1, LecA; settings: ref Cioci et al. 2003; cited from earlier work
5FW LecA [5] = target: T2, 5FW LecA; assay: Competitive binding fluorescence polarization assay with 5FW LecA
Procedure: as §1

LecA [6] = target: T1, LecA; settings: cited from earlier work; for affinity improvement compared to galactose: reported Kd values, ref Kadam, et al. 2011, Rodrigue, et al. 2013

T2 sequence (Q05097 2-122): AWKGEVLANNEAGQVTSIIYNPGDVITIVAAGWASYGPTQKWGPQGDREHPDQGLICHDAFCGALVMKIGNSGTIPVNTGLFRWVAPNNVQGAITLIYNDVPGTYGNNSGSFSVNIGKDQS
T1 sequence (Q05097 whole entry): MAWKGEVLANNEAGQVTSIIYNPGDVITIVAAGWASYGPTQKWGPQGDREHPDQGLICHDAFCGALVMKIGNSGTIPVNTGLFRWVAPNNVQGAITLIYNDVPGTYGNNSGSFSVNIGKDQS

## [Ca+2] [Ca^2+, calcium (II) ion]
LecA [1]
  Kd: 60 ± 20 µM
5FW LecA [2]; 100 μM apo 5FW LecA, MES pH 6, 310 K, one-site-binding model, three independent titrations, listed as Ca2+, read-out: Kd (PrOF NMR, Ca2+ titration)
  Kd: 47 ± 8 µM
5FW LecA [2]; 100 μM apo 5FW LecA, MES pH 6, 310 K, one-site-binding model, three independent titrations, read-out: Kd (PrOF NMR, Ca2+ titration)
  Kd: 478 µM

## O=C[C@H](O)[C@@H](O)[C@@H](O)[C@H](O)CO [D-Gal, D-galactose]
LecA [3]
  IC50: 330 ± 40 µM
LecA [4]
  Kd: 29 µM
5FW LecA [2]
  Kd: 360 µM
5FW LecA [5]
  IC50: 317 µM

## CC(=O)N[C@H]1C(O)O[C@H](CO)[C@H](O)[C@@H]1O (stereo partly drawn) [D-GalNAc, N-acetyl D-galactosamine]
LecA [3]
  IC50: 1230 ± 200 µM
5FW LecA [2]
  Kd: 780 ± 97 µM
5FW LecA [5]
  IC50: 1990 µM
5FW LecA [5]; 5FW LecA
  IC50 (FP-based assay) higher compared with Kd from PrOF NMR: 3 fold

## CC(C)C[C@H](NC(=O)[C@@H]1CCCN1C(=O)[C@H](CCCCN)NC(=O)c1ccc(O[C@@H]2O[C@H](CO)[C@H](O)[C@H](O)[C@H]2O)cc1)C(N)=O [GalAG0]
LecA [6]; ref Kadam et al. 2011, Kadam et al. 2013, Rodrigue et al. 2013
  Kd: 4.2 µM

## OC[C@H]1O[C@@H](Oc2ccccc2)[C@H](O)[C@@H](O)[C@H]1O [Ph-β-D-Gal, phenyl-β-D-galactopyranoside]
5FW LecA [2]; 100 μM holo 5FW LecA, TBS pH 7.8, 310 K, one-site-binding model, three independent titrations, read-out: Kd (PrOF NMR)
  Kd: 166 ± 42 µM

## OC[C@H]1O[C@@H](Sc2ccc3ccccc3c2)[C@H](O)[C@@H](O)[C@H]1O [naphthyl β-thio-D-galactoside]
LecA [6]; ref Rodrigue et al. 2013
  Kd: 6.3 µM
LecA [6]
  affinity improvement compared to galactose: 6 to 7 fold

## O=[N+]([O-])c1ccc(O[C@@H]2O[C@H](CO)[C@H](O)[C@H](O)[C@H]2O)cc1 [pNPGal, p-nitrophenyl β-D-galactoside]
LecA [6]
  affinity improvement compared to galactose: 6 to 7 fold
5FW LecA [2]
  Kd: 54 ± 6 µM
5FW LecA [2]; Kd in PrOF NMR, pNPGal vs D-Gal
  improved binding affinity compared to D-Gal: 6 fold
